Square brackets hold non-standard residues; d marks the D form. Peptide text beside a SMILES is read from it.
Tests used:
[1] = Plasma stability (UPLC-MS); assay type: in vitro ADME, human; settings: human EDTA plasma from four healthy volunteers, 37°C, gentle shaking, UPLC-MS (SIR); for remaining at 72 h, 0.2 mM: peak area vs time 0, read-out: Amount of detectable compound after incubation with human plasma
Procedure: To assess whether the β32_33 peptide, PMT, PMT-8a and PMT-8b peptide-mimetics are stable in blood, we set up a chromatographic assay able to evaluate compound concentration after incubation in human plasma.
Four different samples from healthy volunteers were used. Blood was drawn by venepuncture in vacutainer containing EDTA as an anticoagulant. Plasma was separated by centrifugation and immediately used for the experiments. Each compound was dissolved in 500 μL plasma at a final concentration of 0.2 mM and split into two aliquots, one of which was immediately analysed to assess the basal compound level (T0); the other was incubated at 37°C under gentle shaking, and the amount of each compound was measured at different time points (i.e., 1.5, 3, 6 and 72 h).
To perform chromatographic analyses, the samples were treated with 3 volumes of acetonitrile containing 1% formic acid and then extracted by using the Ostro™ pass-through sample preparation system to remove proteins and phospholipids. Samples were dried under vacuum, resuspended in 100 μL of 0.1% formic acid containing 5% acetonitrile, and then injected directly onto the chromatographic column.
Chromatographic analyses were performed on a Water Acquity H-Class UPLC system (Waters, Milford, MA, United States), including a quaternary solvent manager (QSM), a sample manager with a flow-through needle system (FTN), a photodiode array detector (PDA) and a single-quadruple mass detector with electrospray ionization source (ACQUITY QDa). Analyses were performed on a reverse phase C18 column (75 mm × 3.2 mm i. d., 2.5 μm particle size). The mobile phase was solvent A, 0.1% formic acid in water, and solvent B, 0.1% formic acid in acetonitrile. The flow rate was 0.5 mL/min, the column temperature was set at 25°C and the elution was performed by linearly increasing the concentration of solvent B up to 70% in 7 min. Mass spectrometric detection was performed in the positive electrospray ionization mode, using nitrogen as the nebulizer gas. Analyses were performed in the Total Ion Current (TIC) mode with a mass range of 100–1200 m/z. The capillary voltage was 0.8 kV, cone voltage 8 V, ion source temperature 120°C and probe temperature 600°C. Quantification was performed by Selected Ion Recording (SIR): at m/z = 917.88, corresponding to the [M+2H]^2+ ion obtained from either β32_33 peptide or PMT; at m/z = 961.42, corresponding to the [M + H] ^+ obtained from PMT-8a; and at m/z = 869.48, corresponding to the [M + H]^+ ion obtained from PMT-8b.

mutant cybrids = test: Confocal fluorescence microscopy, co-localization with mitochondria (Mitotracker Red); assay type: cell-based, human; settings: Cy5 constructs 0.25 µM in glucose medium, imaged after 24 h, Mitotracker Red; mean ± SEM of at least five images
Procedure: Previously established osteosarcoma-derived (143B.TK-) cybrid cell lines from patients, which bear either the m.3243A>G mutation in mt-tRNA^Leu(UUR) or the m.8344A>G mutation in mt-tRNA^Lys and controls ([Perli et al., 2014]; [Perli et al., 2016]; [Perli et al., 2020]) were used.
Constructs made of compounds listed in Table 1, comprising D-peptides linked to the Cy5 fluorophore via maleimide cross-linker, were administered to sub-confluent cybrid cell cultures at 0.25 µM in glucose medium. About 24 h after treatment with each construct, cells were incubated with 200 nM Mitotracker Red FM (LifeTechnologies Italia, Monza, Italy) for 30 min at 37°C.
Subsequently, cells were visualized by confocal microscopy. Images of 800 × 800 px (at 88 nm/px) were acquired at the Olympus iX83 FluoView1200 laser scanning confocal microscope using a 60 × NA1,35 oil objective (Olympus Italia SRL Milano, Italy), zoom 3×, 559 nm, and 635 nm lasers and filter setting for Mitotracker Red and Cy5. The fluorescence images were analysed with the ImageJ software ([Rasband, 2018]) to determine the Pearson’s correlation coefficient.
For a subset of experiments, we evaluated the mt localization of constructs up to 72 h after treatment. PMT and PMT fragments were administered to sub-confluent cybrids at a concentration of 0.25 µM in the glucose medium. At 24-, 48- and 72-h after treatment, cells were incubated with Mitotracker Red and visualized by confocal microscopy. After each confocal imaging section, a fresh glucose medium was added to the cells, which were maintained under standard conditions (a humidified atmosphere of 95% air and 5% CO2 at 37°C).

[2] = healthy animals; reached immediately, stable up to 24 h after injection; ref Peng et al., 2018; cited from earlier work
Description: PMT radiolabelling with ^64Cu allowed us to follow the in vivo distribution of the peptide in the body districts of healthy animals over time.

Structure (SMILES): CC[C@@H](C)[C@@H](NC(=O)[C@@H](CC(C)C)NC(=O)[C@@H](C)NC(=O)[C@H](NC(=O)[C@@H](CCCNC(=N)N)NC(=O)[C@H]1CCCN1C(=O)[C@@H](CO)NC(=O)[C@H](N)CC(C)C)[C@H](C)O)C(N)=O [PMT-8b] (H-[dL][dS][dP][dR][dT][dA][dL][dI]-NH2)
- remaining at 72 h, 0.2 mM ([1]; 72 h): > 85%

Structure (SMILES): CC(C)C[C@@H](NC(=O)[C@@H](Cc1ccccc1)NC(=O)[C@@H](CO)NC(=O)[C@@H](CCCCN)NC(=O)[C@H](N)CCCCN)C(=O)N[C@H](CO)C(=O)N1CCC[C@@H]1C(=O)N[C@H](CCCNC(=N)N)C(N)=O [PMT-8a] (H-[dK][dK][dS][dF][dL][dS][dP][dR]-NH2)
- remaining at 72 h, 0.2 mM ([1]; 72 h): > 90%

Structure (SMILES): CC[C@H](C)[C@H](NC(=O)[C@H](CC(C)C)NC(=O)[C@H](C)NC(=O)[C@@H](NC(=O)[C@H](CCCNC(=N)N)NC(=O)[C@@H]1CCCN1C(=O)[C@H](CO)NC(=O)[C@H](CC(C)C)NC(=O)[C@H](Cc1ccccc1)NC(=O)[C@H](CO)NC(=O)[C@H](CCCCN)NC(=O)[C@@H](N)CCCCN)[C@@H](C)O)C(=O)N[C@@H](CC(N)=O)C(=O)N[C@@H](Cc1ccccc1)C(=O)N[C@@H](CC(C)C)C(=O)N[C@H](C(N)=O)C(C)C [β32_33 peptide]
- metabolised at 1.5 h, 0.2 mM ([1]; 1.5 h, peak area vs time 0, read-out: Decrease of amount of compound after incubation with human plasma): 90%
- Amount of detectable compound after incubation with human plasma ([1]; 72 h, 0.2 mM, peak area vs time 0): almost undetectable
- Pearson's correlation coefficient (PCC), mt localization (mutant cybrids): 0.78 ± 0.06

Structure (SMILES): [64Cu] [free ^64Cu]
- Radioactivity concentration in different cortical regions [2]: 0.4–0.6 %ID/mL
